{"source": "patent US4510143A", "about": "“Antiallergic pyrimido[1,2-a]quinoxalin-2-carboxylic acid derivatives” (Roussel Uclaf, priority 1982, dated 1985)"}
{"tested_on": "passive cutaneous reaction mediated by Ig G antibodies", "assay": "Passive cutaneous anaphylaxis in the rat (PCR), inhibition of Ig G PCR after oral administration", "type": "in vivo", "conditions": "0.1 mg/kg, male Wistar rats, 4 hour sensitization, 1 mg ovalbumen challenge", "description": "(§1) Passive cutaneous anaphylaxis in the rat (PCR)\n(§2) Passive cutaneous anaphylaxis in the rat was carried out in male Wistar rats weighing 180-200 g which were sensitized by intradermal injection into four sites on shaved backs to produce a passive cutaneous reaction mediated by Ig G antibodies (a 4 hour sensitization following injection of antiserum heated at 56° C. for one hour). Antigen challenge was carried out in the same way with 1 mg of ovalbumen together with 0.5 ml of 1% Evans blue dye solution being injected intravenously and 30 minutes later, the animals were killed and the severity and area of each blue spot was scored when viewed from the reverse side of the skin.", "units": {"% inhibition of Ig G PCR": "%"}}
{"compound": "O=C(Nc1nn[nH]n1)c1cnc2c(=O)[nH]c3ccccc3n2c1=O", "note": "[Example 9]", "% inhibition of Ig G PCR": 19}
{"compound": "O=C(O)c1cnc2c(=O)[nH]c3ccccc3n2c1=O", "note": "[Example 8, 1,5-dioxo-1,6-dihydropyrimido[1,2-a]quinoxalin-2-carboxylic acid]", "% inhibition of Ig G PCR": 40.5}
{"tested_on": "passive cutaneous reaction mediated by Ig G antibodies", "assay": "Passive cutaneous anaphylaxis in the rat (PCR), inhibition of Ig G PCR after oral administration", "type": "in vivo", "conditions": "1 mg/kg, male Wistar rats, 4 hour sensitization, 1 mg ovalbumen challenge", "description": "as §1, §2", "units": {"% inhibition of Ig G PCR": "%"}}
{"compound": "O=C(Nc1nn[nH]n1)c1cnc2c(=O)[nH]c3ccccc3n2c1=O", "note": "[Example 9]", "% inhibition of Ig G PCR": 23}
{"compound": "Cn1c(=O)c2ncc(C(=O)O)c(=O)n2c2ccccc21", "note": "[Example 10]", "% inhibition of Ig G PCR": 15.6}
{"compound": "O=C(O)c1cnc2c(=O)[nH]c3ccccc3n2c1=O", "note": "[Example 8, 1,5-dioxo-1,6-dihydropyrimido[1,2-a]quinoxalin-2-carboxylic acid]", "% inhibition of Ig G PCR": 52.4}
{"compound": "O=C(Nc1nnn[nH]1)c1cnc2cnc3ccccc3n2c1=O", "note": "[Example 2, N-(5-Tetrazolyl)-1-oxo-1H-pyrimido[1,2-a]quinoxaline-2-carboxamide]", "% inhibition of Ig G PCR": 29.9}
{"compound": "O=C(O)c1cnc2cnc3ccccc3n2c1=O", "note": "[Example 1, 1-oxo-1H-pyrimido[1,2-a]quinoxaline-2-carboxylic acid]", "% inhibition of Ig G PCR": 9.9}
{"tested_on": "passive cutaneous reaction mediated by Ig G antibodies", "assay": "Passive cutaneous anaphylaxis in the rat (PCR), inhibition of Ig G PCR after oral administration", "type": "in vivo", "conditions": "10 mg/kg, male Wistar rats, 4 hour sensitization, 1 mg ovalbumen challenge", "description": "as §1, §2", "units": {"% inhibition of Ig G PCR": "%"}}
{"compound": "O=C(Nc1nn[nH]n1)c1cnc2c(=O)[nH]c3ccccc3n2c1=O", "note": "[Example 9]", "% inhibition of Ig G PCR": 35}
{"compound": "Cn1c(=O)c2ncc(C(=O)O)c(=O)n2c2ccccc21", "note": "[Example 10]", "% inhibition of Ig G PCR": 20.5}
{"compound": "O=C(O)c1cnc2c(=O)[nH]c3ccccc3n2c1=O", "note": "[Example 8, 1,5-dioxo-1,6-dihydropyrimido[1,2-a]quinoxalin-2-carboxylic acid]", "% inhibition of Ig G PCR": 94.1}
{"compound": "O=C(Nc1nnn[nH]1)c1cnc2cnc3ccccc3n2c1=O", "note": "[Example 2, N-(5-Tetrazolyl)-1-oxo-1H-pyrimido[1,2-a]quinoxaline-2-carboxamide]", "% inhibition of Ig G PCR": 48.6}
{"compound": "O=C(O)c1cnc2cnc3ccccc3n2c1=O", "note": "[Example 1, 1-oxo-1H-pyrimido[1,2-a]quinoxaline-2-carboxylic acid]", "% inhibition of Ig G PCR": 50.3}
